Like-named read-outs stand apart in the source and are kept apart here. Marks after values point to notes of the source that are not given here.
Assays:
[1] = test system: methicillin-resistant Staphylococcus aureus MRSA-2 (clinical isolate); assay: MIC broth microdilution, MRSA-2; assay type: cell-based; conditions: for MIC: read-out: MIC MRSA-2
Description: (§1) The minimum inhibitory concentration (MIC) for each tested compound was determined by the broth microdilution method as recommended by the Clinical and Laboratory Standards Institute (CLSI). In a 96-well plate, eleven two-fold serial dilutions of each compound were made in a final volume of 100 μL Luria Broth. Each well was inoculated with ˜10^5 bacterial cells at the initial time of incubation, prepared from a fresh log phase culture (OD600 of 0.5 to 1.0 depending on bacterial strain). The MIC was defined as the lowest concentration of compound that prevented bacterial growth after incubating 16 to 18 hours at 37° C. (MIC values were supported by spectrophotometric readings at OD600). DMSO served as our vehicle and negative control in each microdilution MIC assay. DMSO was serially diluted with a top concentration of 1% v/v.
as §1, with “for each compound was” for “for each tested compound was”, “Standards Institute (CLSI).^6 In a” for “Standards Institute (CLSI). In a”, “concentration of test compound that” for “concentration of compound that”, “37° C. The concentration range tested for each compound during this study was 0.10 to 100 μM. DMSO served” for “37° C. (MIC values were supported by spectrophotometric readings at OD600). DMSO served”, “1% v/v. All MIC values were obtained from a minimum of three independent experiments.” for “1% v/v.”

[2] = test system: human red blood cells (hRBC); assay: Hemolysis of red blood cells; assay type: cell-based
Description: The washing was repeated three times with the buffer. In a 96-well plate, test compounds were added to the buffer from DMSO stocks. […] The plate was then incubated for 1 hour at 37° C. After incubation, the plate was centrifuged for 5 minutes at 3,500 rpm. Then 80 μL of the supernatant was transferred to another 96-well plate and the optical density (OD) was read at 405 nm. DMSO served as our negative control (0% hemolysis) while Triton X served as our positive control (100% hemolysis). […] All reported data correspond to three independent experiments. Ten-point dose-response curves were generated in 96-well plates to determine 50% hemolysis (HC50 values) of red blood cells.
The washing was repeated three times with the buffer. In 96-well plate, the test compounds were added to the buffer. Then 50 μL of 2% of hRBCs in the buffer were added to the test plate to make the final concentrations ranging from 0.2 to 200 μM of each test compound. The plate was then incubated for 1 hour at 37° C. After incubation, the plate was centrifuged for 5 minutes at 3500 rpm and then 80 μL of the supernatant was transferred to another 96-well plate and the Optical Density (OD) was read at 405 nm. DMSO served as our negative control (0% haemolysis) and Triton X served as our positive control (100% haemolysis). The HC50 (concentration of test compound required to lyse red blood cells by 50%) was calculated by plotting the dose-response curve (not shown) with Graphpad Prism 6.0. All data were obtained from three independent haemolysis experiments.

[3] = test system: methicillin-resistant Staphylococcus epidermidis (MRSE strain ATCC 35984); assay: MIC broth microdilution, MRSE 35984; assay type: cell-based; conditions: for MIC S. epidermidis MRSE 35984: Table 1A; for MIC MRSE 35984: Table 4
Description: as §1
as §1, with “for each compound was” for “for each tested compound was”, “Standards Institute (CLSI).^6 In a” for “Standards Institute (CLSI). In a”, “concentration of test compound that” for “concentration of compound that”, “37° C. The concentration range tested for each compound during this study was 0.10 to 100 μM. DMSO served” for “37° C. (MIC values were supported by spectrophotometric readings at OD600). DMSO served”, “1% v/v. All MIC values were obtained from a minimum of three independent experiments.” for “1% v/v.”

[4] = test system: Pseudomonas aeruginosa (PAO1); assay: MIC broth microdilution, PAO1; assay type: cell-based
Description: as §1
as §1, with “for each compound was” for “for each tested compound was”, “Standards Institute (CLSI).^6 In a” for “Standards Institute (CLSI). In a”, “concentration of test compound that” for “concentration of compound that”, “37° C. The concentration range tested for each compound during this study was 0.10 to 100 μM. DMSO served” for “37° C. (MIC values were supported by spectrophotometric readings at OD600). DMSO served”, “1% v/v. All MIC values were obtained from a minimum of three independent experiments.” for “1% v/v.”

[5] = test system: Acinetobacter baumannii (ATCC 1794); assay: MIC broth microdilution, A. baumannii 1794; assay type: cell-based; conditions: for MIC A. baumannii 1794: Table 1A; for MIC A. bau. 1794: Table 4
Description: as §1
as §1, with “for each compound was” for “for each tested compound was”, “Standards Institute (CLSI).^6 In a” for “Standards Institute (CLSI). In a”, “concentration of test compound that” for “concentration of compound that”, “37° C. The concentration range tested for each compound during this study was 0.10 to 100 μM. DMSO served” for “37° C. (MIC values were supported by spectrophotometric readings at OD600). DMSO served”, “1% v/v. All MIC values were obtained from a minimum of three independent experiments.” for “1% v/v.”

[6] = test system: vancomycin-resistant Enterococcus faecium (VRE strain ATCC 700221); assay: MIC broth microdilution, VRE 700221; assay type: cell-based; conditions: for MIC E. faecium VRE 700221: Table 1A; for MIC VRE 700221: Table 4
Description: as §1
as §1, with “for each compound was” for “for each tested compound was”, “Standards Institute (CLSI).^6 In a” for “Standards Institute (CLSI). In a”, “concentration of test compound that” for “concentration of compound that”, “37° C. The concentration range tested for each compound during this study was 0.10 to 100 μM. DMSO served” for “37° C. (MIC values were supported by spectrophotometric readings at OD600). DMSO served”, “1% v/v. All MIC values were obtained from a minimum of three independent experiments.” for “1% v/v.”

[7] = test system: methicillin-sensitive Staphylococcus aureus ATCC 29213; assay: MIC broth microdilution, S. aureus 29213; assay type: cell-based
Description: as §1, with “The MIC was defined as the lowest concentration of compound that prevented bacterial growth after incubating 16 to 18 hours at 37° C.” left out
(§2) Each well was inoculated with ˜10^5 bacterial cells at the initial time of incubation, prepared from a fresh log phase culture (OD600 of 0.5 to 1.0 depending on bacterial strain). […] The concentration range tested for each compound during this study was 0.10 to 100 μM. DMSO served as our vehicle and negative control in each microdilution MIC assay. DMSO was serially diluted with a top concentration of 1% v/v. All MIC values were obtained from a minimum of three independent experiments.

MRSA BAA-1707 = assay: MIC broth microdilution, MRSA BAA-1707; assay type: cell-based, Staphylococcus aureus; conditions: for MIC MRSA 1707: Table 4
Description: as §1, with “The MIC was defined as the lowest concentration of compound that prevented bacterial growth after incubating 16 to 18 hours at 37° C.” left out
as §2

Row | SMILES | MIC MRSA-2 ([1]; Table 1A) | MIC S. epidermidis MRSE 35984 [3] | MIC PAO1 ([4]; Table 1A) [µM] | MIC A. baumannii 1794 ([5]; in µM) | MIC E. faecium VRE 700221 [6] | MIC MRSA-2 ([1]; Table 4) | MIC PAO1 ([4]; Table 4) [µM] | MIC A. bau. 1794 [5] | MIC MRSE 35984 [3] | MIC VRE 700221 [6] | other results
1 | CCCCCCCCCCCCCCCCn1cc[n+](Cc2ccccc2C[n+]2ccn(CCCCCCCCCCCCCCCC)c2C)c1C [AB-3-35] | > 100 µM | > 100 µM | > 100 | >100 | > 100 µM | – | – | – | – | – | HC50 [2]: 34.5 µM
2 | CCCCCCCCCCCCCCCCn1cc[n+](-c2ccc(C(F)(F)F)cc2)c1C.[Br-] [Compound 2] | – | – | – | – | – | – | – | – | – | – | RBC HC50 [2]: 13.4 µM; hemolytic activity [2]: potent hemolytic activities
3 | CCCCCCCCCCCCCCCCn1cc[n+](-c2ccc(Oc3ccccc3)cc2)c1C.[Br-] [Compound 5] | – | – | – | – | – | 4.69a micromolar | >100 | 37.5a micromolar | – | – | MIC MRSA-2 ([1]; Table 1B): 4.69^a μM; MIC MRSA-2 ([1]; Table 3): 4.69^a μM; MIC S. aureus 29213 ([7]; Table 1B): 4.69^a μM; MIC S. aureus 29213 ([7]; Table 3): 4.69^a μM; MIC MRSA BAA-1707 (MRSA BAA-1707; Table 1B): 4.69^a μM; MIC MRSA BAA-1707 (MRSA BAA-1707; Table 3): 4.69^a μM; MIC MRSA 1707 (MRSA BAA-1707): 4.69a micromolar
4 | CCCCCCCCCCCCCCCCn1cc[n+](-c2ccc(OC(F)(F)F)cc2)c1C.[Br-] [Compound 7] | – | – | – | – | – | 3.13 µM | >100 | 18.8a micromolar | – | – | MIC ([1]; Table 1B): 3.13 µM; MIC ([1]; Table 3): 3.13 µM; MIC S. aureus 29213 ([7]; Table 1B): 2.35^a μM; MIC S. aureus 29213 ([7]; Table 3): 2.35^a μM; MIC MRSA BAA-1707 (MRSA BAA-1707; Table 1B): 4.69^a μM; MIC MRSA BAA-1707 (MRSA BAA-1707; Table 3): 4.69^a μM; MIC MRSA 1707 (MRSA BAA-1707): 4.69a micromolar
5 | C=CC[n+]1ccn(CCCCCCCCCCCCCCCC)c1C.[Br-] [Compound 10] | 2.35^a | 0.78 µM | > 100 | – | 2.35^a | 2.35a micromolar | >100 | 9.38a micromolar | 0.78 µM | 2.35a micromolar | MIC A. baumannii 1794 [5]: 9.38^a
6 | CCCCCCCCCCCCCCCCn1cc[n+](Cc2ccc(C(C)C)cc2)c1C.[Br-] [Compound 12] | 6.25 µM | 2.35^a | > 100 | >100 | 3.13 µM | 6.25 µM | >100 | >100 µM | 2.35a micromolar | 3.13 µM | –
7 | CCCCCCCCCCCCCCCCn1cc[n+](Cc2ccc(C(C)(C)C)cc2)c1C.[Br-] [Compound 13] | 12.5 µM | 9.38^a | > 100 | >100 | 4.69^a | 12.5 µM | >100 | >100 µM | 9.38a micromolar | 4.69a micromolar | –

Source: patent US11419335B2, “N-arylated analogues and uses thereof” (University of Florida Research Foundation, Incorporated, priority 2016, dated 2022)
